One molecule from patent US11612586B2, “Indole regulation of antigen presenting cells” (THE TEXAS A&M UNIVERSITY SYSTEM, priority 2016, dated 2023) can be followed below.

The assay deals with NF-kB. Nature of the assay: NF-kB activity assay in DC2.4-NFkB-GLuc reporter cells. It counts as cell-based, murine. The settings on record: indole 24 hours, LPS 10 ug/ml.

Method: Supernatants were collected and assayed for GLuc concentration in terms of relative luminescence units (RLU). *p<0.05 by Student's t test comparing treated samples to untreated, LPS-stimulated sample.
To maintain consistency with the cytokine studies, the bacterial surface molecule LPS were utilized to induce NF-kB activity.
Culture supernatants were collected at 8 and 24 hours and assayed for GLuc using Biolux Gaussia Luciferase assay kit (New England BioLabs).

Consider `c1ccc2[nH]ccc2c1` [Indole, indole], for which the “inhibition of NF-kB signaling” value is “approximately one-third”.
